Read-outs that look alike come from different tables or passages of the source.
Legend:
[1] = target: T1, chromaffin granule amine transport protein (Rattus norvegicus, UniProt Q01818); assay: Quantitative [3H]dopamine transport assay with mpp^res CHO cell homogenate; format: biochemical; conditions: for rank order for affinity of substrates: quantitative assay
T1 sequence (Q01818 1-521): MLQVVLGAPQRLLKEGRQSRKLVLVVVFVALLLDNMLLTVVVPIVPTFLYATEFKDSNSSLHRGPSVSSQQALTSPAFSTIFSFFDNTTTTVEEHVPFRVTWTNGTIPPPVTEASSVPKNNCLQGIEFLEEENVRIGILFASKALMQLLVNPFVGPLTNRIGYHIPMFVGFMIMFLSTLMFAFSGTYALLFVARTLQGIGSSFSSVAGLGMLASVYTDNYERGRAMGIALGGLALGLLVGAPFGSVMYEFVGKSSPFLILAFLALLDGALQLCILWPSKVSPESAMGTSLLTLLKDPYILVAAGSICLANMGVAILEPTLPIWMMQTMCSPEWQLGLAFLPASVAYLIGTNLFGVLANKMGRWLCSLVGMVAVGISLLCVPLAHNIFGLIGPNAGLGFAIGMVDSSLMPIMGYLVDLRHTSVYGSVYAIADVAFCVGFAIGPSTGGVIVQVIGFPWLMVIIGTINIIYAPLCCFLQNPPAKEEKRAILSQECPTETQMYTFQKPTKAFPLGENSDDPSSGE
Protocol: The quantity of label bound is measured after filtration of the assay mixture. Preferably, the label is a radioactive label. […] This can be done by standard graphic kinetic techniques such as the Lineweaver-Burke plot.
Incubation was performed at 29° C. for the time period indicated (from 2 minutes to 30 minutes). The assay was terminated by dilution in cold assay buffer followed by filtration through 0.2 μm Supor™ 200 membranes (Gelman, Ann Arbor, Mich.) and the bound radioactivity was measured. The cells used for the quantitative assay are selected in MPP^+ or screened with antibody to ensure that they express the transporter at high levels, as it is difficult to measure activity in this assay at low levels of transporter expression.
The quantitative transport test was performed as described above on wild-type CHO cells and mpp^res CHO cells.

[2] = target: T1, chromaffin granule amine transport protein; assay: cell-based; format: cell-based; conditions: for Dopamine Fluorescence (mpp^res CHO): untreated control ++++, 12 hour dopamine loading; for inhibition of vesicular amine uptake/transport (fluorescence assay, in words): concentrations of Table 1
Protocol: Uptake and cellular compartmentalization of loaded dopamine were performed by growing cells on poly-lysine-coated glass coverslips. […] The cells were then washed three times in 0.1M sodium phosphate, pH 7.4, and incubated at 4° C. in 2% glyoxylic acid/0.5 mg% MgCl2, pH 4.9-5.0 for three minutes as described by de la Torre, J. Neurosci. Meth. 3:1-5 (1980). Briefly, excess solution is wiped off the bottom and edges of the slide using absorbent paper, taking care not to touch the section. The coverslips were then drained thoroughly, dried in air at 45° C. heated to 80° C. for five minutes, inverted over mineral oil on glass slides and examined under fluorescence using the appropriate filters as described by Knigge et al., Brain Res. 120:393-405 (1977). Briefly, the preparations were infiltrated with warm immersion oil and examined in a Leitz MPV2 microspectrofluorometer equipped with Schoffel excitation and emission grating monochromators, photomultipliers, and ratio computing circuitry. Cells were scanned with either monochromatic light (370 nm) or narrow band excitation (S405, BG3) light for the purpose of identifying fluorescence within cells. Ploem illumination was used in combination with a X 63 or X 100 oil immersion objective.
Dopamine-loaded fluorescence was carried out as described in Example 1. […] Glyoxylic-acid-induced fluorescence was used to determine the intracellular distribution as described above in Example 1. The procedures were the same as described in Example 1 however a pure cDNA clone encoding the vesicle membrane transport protein, selected in the presence of MPP^+, obtained as described herein, was used rather than the primary transformant. […]
The effects of various pharmacologic agents were tested to determine whether the properties of the protein encoded by the mpp^res cDNA corresponded with those expected for the chromaffin granule amine transport protein. […] The cells were pre-incubated in Krebs-Ringer buffer containing 1 μM pargyline and the dose of the drug indicated for 15 minutes. 25 nM [^3 H]-dopamine was then added in the same buffer and after incubation at 37° C. for one hour, the cells were washed in cold Krebs-Ringer buffer, lysed and counted in Ecolite (ICN) as described by Greene and Rein, Brain Res. 129:247-263 (1978). Values were determined from three separate wells and the mean was expressed as percent of control uptake±standard deviation. […] The dose required to inhibit maximal uptake by 50%, Ki, was estimated from the fluorescence data using a range of concentrations for each agent.

[3] = test system: PC12 cells; assay: cells; conditions: Rattus norvegicus, PC-12, 1 h, read-out: [^3 H]-Dopamine Uptake (PC12)
Protocol: The effects of various pharmacologic agents were tested to determine whether the properties of the protein encoded by the mpp^res cDNA corresponded with those expected for the chromaffin granule amine transport protein. […] The cells were pre-incubated in Krebs-Ringer buffer containing 1 μM pargyline and the dose of the drug indicated for 15 minutes. […] Values were determined from three separate wells and the mean was expressed as percent of control uptake±standard deviation.

[4] = test system: chromaffin cells; conditions: [3H]-MPP+ accumulated; cited from earlier work
[5] = test system: transfected CHO cells; assay: Survival/selection/growth of transfected CHO cells in MPP+; format: cell-based, Chinese hamster
Protocol: Using the above methods, the PC12 cDNA library constructed in the plasmid expression vector CDM8 was transfected into CHO cells. Using the selectable marker RSV- neo (Walker, Weizmann Institute, Israel), […] independent stable transformants were obtained after selection in the neomycin analogue G418 at 400 μg/ml effective dose. These cells were then selected at 40% confluence in 1 mM MPP^+. […] However, at four weeks, a colony of cells without refractile inclusions appeared and rapidly covered the plate. The apparently normal growth of these cells in the presence of 1 mM MPP^+ stands in marked contrast to all of the resistant clones obtained without transfection, which grew very slowly if at all. […] However, at 1 mM MPP^+, the resistant cells did show some toxicity, particularly when the assay was performed at higher cell density.
To identify the cDNA sequences responsible for conferring resistance to MPP^+, integrated plasmids were rescued from the primary CHO transformant obtained as described above in Example 1. […] The primary MPP^+ -resistant CHO transformant was amplified in culture and following cell lysis in 5M guanidinium isothiocyanate, the high molecular weight DNA prepared by repeated precipitation in isopropanol. After digestion with Not I, which cleaves the CDM8 vector once downstream of the cDNA insertion site as well as at rare eight-nucleotide recognition sites elsewhere in the genome, the DNA was religated and transformed into E. coli by electroporation as described by Stern-Bach et al., J. Biol. Chem. 265:3961-3966 (1990). Four pools of the derived plasmids containing approximately 50 colonies each were transfected into CHO cells and after two days were selected in 1 mM MPP^+. Four weeks later, one pool gave rise to several MPP^+ -resistant colonies, two pools gave rise to 1-2 colonies and the fourth pool and CDM8 vector gave rise to no healthy, resistant colonies. Restriction enzyme analysis of the plasmids in the pool conferring the highest frequency of resistance to MPP^+ indicated three independent clones of 1.0, 1.3 and 2.5 kb. […]

[6] = test system: Untransfected CHO cells; assay: Survival/selection of untransfected CHO cells in MPP+; format: cell-based, Chinese hamster; conditions: 500 μM
Protocol: To determine whether the transfer of DNA sequences from PC12 cells into CHO cells could be used to generate stable CHO transformants resistant to MPP^+, it was first necessary to determine the spontaneous rate of resistance under different culture conditions. […] Selection of one million CHO cells at intermediate density (25-50% confluence) in 500 μM MPP^+ gave rise to 5-10 small colonies after one month. However, these cells contained particulate inclusions characteristic of MPP^+ toxicity, and grew very slowly even when maintained at low density. At moderate density, the cells degenerated further and detached from the plate.

[7] = test system: CHO cells; assay: Inhibition of protein synthesis in CHO cells by MPP+
[8] = test system: MPP^+ -resistant CHO cells; assay: MTT cytotoxicity assay in MPP+-resistant transfected CHO cells; format: cell-based, Chinese hamster
Protocol: (§1) Differential susceptibility to the respiratory complex I inhibitors MPP^+ and rotenone was shown by measuring toxicity by measuring general cell dehydrogenase activity with reduction of a tetrazolium dye (MTT) in a spectrophotometric plate assay as described by Hansen et al., J. Immunol. Methods 119:203-210 (1989). Briefly, a stock solution of MTT (3,(4,5-dimethylthiazol-2-yl)2,5-diphenyltetrazolium bromide) was dissolved at a concentration of 5 mg/ml in sterile phosphate buffered saline at room temperature. To each well was added 25 μl of the stock solution. After two hours of incubation at 37° C., 100 μl of extraction buffer (20% w/v of SDS in a solution of 50% each dimethylformamide and demineralized water with the pH adjusted to 4.7 with acetic acid and HCl). After an overnight incubation at 37° C., the optical densities at 570 nm were measured using a multiscanner, employing the extraction buffer as the blank. This assay was carried out in triplicate on 96-well plates (NUNC, Denmark). MPP^+ and rotenone at the concentrations indicated in FIG. 6a and 6b, respectively, was added to wild-type and MPP^+ -resistant CHO cells at approximately 50% confluence, and toxicity was assayed after 2-3 days by measuring general cell dehydrogenase activity with the reduction of the tetrazolium dye MTT (3,(4,5-dimethylthiazol-2-yl)2,5-diphenyl-tetrazolium bromide). After addition of the dye at a final concentration of 1 mg/ml, the cells were incubated for two hours at 37° C. and the formazan product was solubilized in 10% sodium dodecyl sulfate (SDS). The plates were maintained at 37° C. for an additional twenty hours and the optical density was determined in an ELISA plate reader at a test wavelength of 570 nm, a reference wavelength of 630 nm and a calibration setting of 1.99. All determinations were performed in triplicate and expressed as the mean, with the error bars representing standard deviation (FIG. 6a and 6b).
To determine whether an alteration in the process of respiration was responsible for the resistance to MPP^+, the effects of other known respiratory inhibitors were examined. […] Thus, if the resistance were due to a change in the site of action, the transfected cells should also show resistance to rotenone. […] However, rotenone is considered to have its selected effect on respiration at relatively low doses, and an additional, less specific effect at higher doses.
Therefore, the toxicity of MPP^+ to transfected cells in the presence of 1 μM reserpine was examined.

[9] = test system: PC12 cells; conditions: cited from earlier work
[10] = test system: wild-type CHO cells; assay: MTT cytotoxicity assay in wild-type CHO cells; format: cell-based, Chinese hamster; conditions: wild-type CHO, 2-3 days
Protocol: as §1

NC[C@H](O)c1ccc(O)c(O)c1 [norepinephrine]
rank order for affinity of substrates [1]: serotonin>epinephrine>dopamine>norepinephrine

N#CC(C#N)=NNc1cccc(Cl)c1 [carbonyl cyanide m-chlorophenylhydrazone]
dopamine incorporation by mpp^res cells ([1]; 5 μM): blocked

NCCc1c[nH]c2ccc(O)cc12 [serotonin]
rank order for affinity of substrates [1]: serotonin>epinephrine>dopamine>norepinephrine

CNC[C@H](O)c1ccc(O)c(O)c1 [epinephrine]
rank order for affinity of substrates [1]: serotonin>epinephrine>dopamine>norepinephrine

CNCCCN1c2ccccc2CCc2ccccc21 [desipramine]
Ki ([2]; dose required to inhibit maximal uptake by 50%, estimated from fluorescence data, read-out: Ki (est)): 500 µM

COc1ccc(CCN(C)CCCC(C#N)(c2ccc(OC)c(OC)c2)C(C)C)cc1OC (stereo not drawn) [verapamil]
Ki [2]: 50 µM
Dopamine Fluorescence (mpp^res CHO) ([2]; agent 100 μM): 0
inhibition of vesicular amine uptake/transport (fluorescence assay, in words) [2]: inhibited transport, but at high concentrations
activity at 100 µM [3]: 21 ± 1%

CCN(CC)CCCC(C)Nc1ccnc2cc(Cl)ccc12 (stereo not drawn) [chloroquine]
Dopamine Fluorescence (mpp^res CHO) ([2]; agent 500 μM): 0
inhibition of vesicular amine uptake/transport (fluorescence assay, in words) [2]: inhibited vesicular amine uptake
activity at 500 µM [3]: 17 ± 1%

C[n+]1ccc(-c2ccccc2)cc1 [MPP^+, 1-methyl-4-phenylpyridinium]
toxicity to chromaffin cells [4]: relatively little toxicity
toxicity in library-transfected CHO cells ([5]; 1 mM, 40% confluence): Virtually all of the cells developed toxicity within one week
growth of the resistant clone in MPP+ ([5]; vs untreated wild-type cells, particularly at higher densities): slightly more slowly
number of resistant colonies from one million CHO cells ([6]; 25-50% confluence, after one month): 5-10 small colonies
cell survival in MPP+ ([6]; high density (more than 75% confluence)): all of the cells died within 24 hours
cell survival in MPP+ ([6]; low density (less than 25% confluence)): the cells stopped growing, gradually acquiring refractile cytoplasmic inclusions, swelling and eventually detaching from the plate after several weeks
acquired resistance of untransfected CHO cells ([6]; selection for over two months): little resistance
sensitivity of CHO cells to MPP+ relative to PC12 cells [7]: greater sensitivity to MPP^+ than PC12 cells
inhibition of protein synthesis ([7]; over 100 μM, 2-3 days, high density CHO cells): virtually complete inhibition of protein synthesis
MPP+ toxicity (MTT assay) ([8]; resistant cells, 1 mM, particularly at higher cell density): some toxicity
MPP+ toxicity (MTT assay) ([8]; resistant clone, 2-3 days): relative lack of toxicity
PC12 cell death ([9]; 100 μM): death by two weeks
PC12 cell death ([9]; 1 mM): cell death by four days
MPP+ toxicity (MTT assay) [10]: steep dose-response curve

NCCc1ccc(O)c(O)c1 [dopamine]
rank order for affinity of substrates [1]: serotonin>epinephrine>dopamine>norepinephrine

— patent US5688936A, “Vesicle membrane transport proteins” (priority 1993, dated 1997)
